Measurements published in patent US9023789B2, “Amylin analogs and pharmaceutical compositions thereof” (Novo Nordisk A/S, priority 2012, dated 2015).
Numbered stars: 1 amine (or outer) side, 2 acyl side, 3 side chain; on linkers, the order of the positions; unused ones are H or OH. Bridge positions count the residues as written; N and C are the ends. Side chains are listed from the residue outwards. Peptide text beside a SMILES is read from it. * marks the point of attachment. C20 diacid = O=C(O)CCCCCCCCCCCCCCCCCCC(=O)*; γGlu = O=C(O)[C@H](CCC(=O)[*:2])N[*:1]

Assays:
[1] = biological target: T1, human amylin 3(a) receptor (human calcitonin receptor + RAMP-3) in BHK570 cells (Homo sapiens, UniProt O60896+P30988); assay: ASSAY (II)a functional assay, human amylin receptor (CRE luciferase); format: cell-based
T1 construct: expressed in transfected cells
How it was run: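 BHK cells stably carrying a CRE-luciferase reporter plus calcitonin receptor, or calcitonin receptor with RAMP-3 for the amylin 3(a) receptor, were seeded and kept overnight at 37° C. Compounds were added in assay medium with 10% FBS and 10 mM Hepes, pH 7.4, for 3 hours at 37° C, then luminescence was counted.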

[2] = ASSAY (III) ThT fibrillation assay for physical stability; format: physicochemical
How it was run: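 Formulations with 1 μM ThT, pH adjusted as required, incubated at 37 °C with 960 rpm orbital shaking; fluorescence (ex 444/em 485 nm) read every 20 min. Fibrillation reported as mean ThT fluorescence ± SD of 4–8 replicates at time points; polypeptide concentration measured by reverse-phase HPLC before and after, post-centrifugation.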

[3] = biological target: T2, human amylin receptor (membranes from Amylin 3(a)/CRE-luc cells) (Homo sapiens, UniProt O60896+P30988); assay: ASSAY (V) binding to the human amylin receptor (SPA, 125I-rat amylin);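 note: competition binding of cell membranes (35 ng/µL) mixed with SPA beads in 384-well plates at 40 µL total volume, read by scintillation counting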
T2 construct: expressed in transfected cells
T2 sequence (P30988 25-474): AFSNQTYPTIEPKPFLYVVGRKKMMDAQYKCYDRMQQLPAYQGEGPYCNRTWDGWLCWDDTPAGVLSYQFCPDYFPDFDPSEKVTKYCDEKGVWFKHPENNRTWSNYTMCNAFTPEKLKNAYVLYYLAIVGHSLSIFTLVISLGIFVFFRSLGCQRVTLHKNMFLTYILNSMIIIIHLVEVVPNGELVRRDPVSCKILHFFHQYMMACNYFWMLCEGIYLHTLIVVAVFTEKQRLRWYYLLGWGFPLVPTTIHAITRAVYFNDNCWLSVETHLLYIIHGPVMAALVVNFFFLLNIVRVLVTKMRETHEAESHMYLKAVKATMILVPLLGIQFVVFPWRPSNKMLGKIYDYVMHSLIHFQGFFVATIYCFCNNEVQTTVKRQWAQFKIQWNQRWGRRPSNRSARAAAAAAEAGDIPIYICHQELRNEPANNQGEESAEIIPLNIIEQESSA
T2 sequence (O60896 24-148 partner): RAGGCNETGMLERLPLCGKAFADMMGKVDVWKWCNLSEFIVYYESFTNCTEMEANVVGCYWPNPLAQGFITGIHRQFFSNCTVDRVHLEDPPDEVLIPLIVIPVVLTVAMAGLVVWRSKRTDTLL

[4] = hCTR funct. EC50 divided by hAmylin-R funct. EC50
[5] = hCTR funct. EC50 over hAmylin-R funct. EC50
[6] = human functional selectivity: hCTR funct. EC50 / hAmylin-R funct. EC50
[7] = Table 5, selectivity, hCTR bind IC50 / hAmylin-R bind IC50
[8] = Table 5a, selectivity, hCTR bind IC50 / hAmylin-R bind IC50
[9] = Table 5b, selectivity, hCTR bind IC50 / hAmylin-R bind IC50
[10] = Table 5c, selectivity, hCTR bind IC50 / hAmylin-R bind IC50
[11] = Table 7, human binding selectivity, included for comparison
[12] = Table 7a (preferred compounds), human binding selectivity, included for comparison
[13] = ratio of human calcitonin receptor binding IC50 to human amylin receptor binding IC50
[14] = hCTR funct. EC50 / hAmylin-R funct. EC50

Row | Ratio hCT/hAmylin funct. [1, 4] | Ratio hCT/hAmylin funct. [1, 5] | Ratio hCT/hAmylin funct. [1, 6] | ThT pH 4.0 lag time (h) [2] [h] | Ratio hCT/hAmylin binding [3, 7] | Ratio hCT/hAmylin binding [3, 8] | Ratio hCT/hAmylin binding [3, 9] | Ratio hCT/hAmylin binding [3, 10] | Ratio hCT/hAmylin binding [3, 11] | Ratio hCT/hAmylin binding [3, 12] | Ratio hCT/hAmylin binding [3, 13] | Ratio hCT/hAmylin funct. [1, 14] | SMILES | EC50 ([1]; human amylin receptor functional potency, assay (II), read-out: hAmylin-R funct. EC50) [pM] | IC50 ([3]; Table 4, read-out: hAmylin-R bind IC50) [pM]
1 | 60.9 | 60.9 | 60.9 | 45 | 59.4 | 59.4 | 59.4 | 59.4 | 59.4 | 59.4 | 59.4 |  | CC[C@H](C)[C@H](NC(=O)[C@H](C)NC(=O)CNC(=O)[C@H](Cc1ccccc1)NC(=O)[C@H](CC(N)=O)NC(=O)[C@@H]1CCCN1C(=O)[C@H](CO)NC(=O)[C@H](CO)NC(=O)[C@H](Cc1c[nH]cn1)NC(=O)[C@H](CCCNC(=N)N)NC(=O)[C@H](CC(C)C)NC(=O)[C@H](Cc1ccccc1)NC(=O)[C@H](CC(N)=O)NC(=O)[C@H](C)NC(=O)[C@H](CC(C)C)NC(=O)[C@H](CCCNC(=N)N)NC(=O)[C@H](CCC(N)=O)NC(=O)[C@@H](NC(=O)[C@H](C)NC(=O)[C@@H]1CSSC[C@H](NC(=O)[C@@H](N)CCCCNC(=O)CC[C@H](NC(=O)CCCCCCCCCCCCCCCCC(=O)O)C(=O)O)C(=O)N[C@@H](CC(N)=O)C(=O)N[C@@H]([C@@H](C)O)C(=O)N[C@@H](C)C(=O)N[C@@H]([C@@H](C)O)C(=O)N1)[C@@H](C)O)C(=O)N1CCC[C@H]1C(=O)N[C@@H](CO)C(=O)N[C@@H](CO)C(=O)N[C@H](C(=O)N[C@@H](CC(N)=O)C(=O)N[C@H](C(=O)NCC(=O)N[C@@H](Cc1c[nH]cn1)C(=O)N[C@@H](CC(N)=O)C(=O)N[C@H](C(=O)N[C@@H](Cc1ccc(O)cc1)C(N)=O)[C@@H](C)O)C(C)C)[C@@H](C)O [Example 113] |  | 
2 | 0.9 | 0.9 | 0.9 | 45 | 0.5 |  |  |  | 0.5 |  |  | 0.9 | CC[C@H](C)[C@H](NC(=O)[C@H](C)NC(=O)CNC(=O)[C@H](Cc1ccccc1)NC(=O)[C@H](CC(N)=O)NC(=O)[C@@H]1CCCN1C(=O)[C@H](CO)NC(=O)[C@H](CO)NC(=O)[C@H](Cc1c[nH]cn1)NC(=O)[C@H](CCCNC(=N)N)NC(=O)[C@H](CC(C)C)NC(=O)[C@H](Cc1ccccc1)NC(=O)[C@H](CCC(=O)O)NC(=O)[C@H](C)NC(=O)[C@H](CC(C)C)NC(=O)[C@H](CCCNC(=N)N)NC(=O)[C@H](CCC(N)=O)NC(=O)[C@@H](NC(=O)[C@H](C)NC(=O)[C@@H]1CSSC[C@H](NC(=O)[C@@H](N)CCCCNC(=O)CC[C@H](NC(=O)CCCCCCCCCCCCCCCCCCC(=O)O)C(=O)O)C(=O)N[C@@H](CC(N)=O)C(=O)N[C@@H]([C@@H](C)O)C(=O)N[C@@H](C)C(=O)N[C@@H]([C@@H](C)O)C(=O)N1)[C@@H](C)O)C(=O)N1CCC[C@H]1C(=O)N[C@@H](CO)C(=O)N[C@@H](CO)C(=O)N[C@H](C(=O)N[C@@H](CC(N)=O)C(=O)N[C@H](C(=O)NCC(=O)N1CCC[C@H]1C(=O)N[C@@H](CC(N)=O)C(=O)N[C@H](C(=O)N1CCC[C@H]1C(N)=O)[C@@H](C)O)C(C)C)[C@@H](C)O [Example 114] (H-K([γGlu-C20 diacid])CNTATCATQRLAEFLRHSSPNFGAIPSSTNVGPNTP-NH2; disulfide 2-7 (inferred); N-terminus assumed) |  | 
3 | 4.9 |  | 4.9 | 45 | 24.8 | 24.8 | 24.8 | 24.8 | 24.8 | 24.8 | 24.8 | 4.9 | CC[C@H](C)[C@H](NC(=O)[C@H](C)NC(=O)CNC(=O)[C@H](Cc1ccccc1)NC(=O)[C@H](CC(N)=O)NC(=O)[C@@H]1CCCN1C(=O)[C@H](CO)NC(=O)[C@H](CO)NC(=O)[C@H](Cc1c[nH]cn1)NC(=O)[C@H](CCCNC(=N)N)NC(=O)[C@H](CC(C)C)NC(=O)[C@H](Cc1ccccc1)NC(=O)[C@H](Cc1c[nH]cn1)NC(=O)[C@H](C)NC(=O)[C@H](CC(C)C)NC(=O)[C@H](CCCNC(=N)N)NC(=O)[C@H](CCC(N)=O)NC(=O)[C@@H](NC(=O)[C@H](C)NC(=O)[C@@H]1CSSC[C@H](NC(=O)[C@@H](N)CCCCNC(=O)CC[C@H](NC(=O)CCCCCCCCCCCCCCCCCCC(=O)O)C(=O)O)C(=O)N[C@@H](CC(N)=O)C(=O)N[C@@H]([C@@H](C)O)C(=O)N[C@@H](C)C(=O)N[C@@H]([C@@H](C)O)C(=O)N1)[C@@H](C)O)C(=O)N1CCC[C@H]1C(=O)N[C@@H](CO)C(=O)N[C@@H](CO)C(=O)N[C@H](C(=O)N1CCC[C@H]1C(=O)N[C@H](C(=O)NCC(=O)N1CCC[C@H]1C(=O)N[C@@H](CC(N)=O)C(=O)N[C@H](C(=O)N[C@@H](Cc1ccc(O)cc1)C(N)=O)[C@@H](C)O)C(C)C)[C@@H](C)O [Example 116] (H-K([γGlu-C20 diacid])CNTATCATQRLAHFLRHSSPNFGAIPSSTPVGPNTY-NH2; disulfide 2-7) |  | 
4 | 17.0 | 17.0 | 17.0 | 45 | 38.6 | 38.6 | 38.6 | 38.6 | 38.6 | 38.6 | 38.6 |  | CC[C@H](C)[C@H](NC(=O)[C@H](C)NC(=O)CNC(=O)[C@H](Cc1ccccc1)NC(=O)[C@H](CC(N)=O)NC(=O)[C@@H]1CCCN1C(=O)[C@H](CO)NC(=O)[C@H](CO)NC(=O)[C@H](Cc1c[nH]cn1)NC(=O)[C@H](CCCNC(=N)N)NC(=O)[C@H](CC(C)C)NC(=O)[C@H](Cc1ccccc1)NC(=O)[C@H](CCC(=O)O)NC(=O)[C@H](C)NC(=O)[C@H](CC(C)C)NC(=O)[C@H](CCCNC(=N)N)NC(=O)[C@H](CCC(N)=O)NC(=O)[C@@H](NC(=O)[C@H](C)NC(=O)[C@@H]1CSSC[C@H](NC(=O)[C@@H](N)CCCCNC(=O)CC[C@H](NC(=O)CCCCCCCCCCCCCCCCCCC(=O)O)C(=O)O)C(=O)N[C@@H](CC(N)=O)C(=O)N[C@@H]([C@@H](C)O)C(=O)N[C@@H](C)C(=O)N[C@@H]([C@@H](C)O)C(=O)N1)[C@@H](C)O)C(=O)N1CCC[C@H]1C(=O)N[C@@H](CO)C(=O)N[C@@H](CO)C(=O)N[C@H](C(=O)N[C@@H](CC(N)=O)C(=O)N[C@H](C(=O)NCC(=O)N1CCC[C@H]1C(=O)N[C@@H](CCCNC(=N)N)C(=O)N[C@H](C(=O)N[C@@H](Cc1ccc(O)cc1)C(N)=O)[C@@H](C)O)C(C)C)[C@@H](C)O [Example 117] (H-K([γGlu-C20 diacid])CNTATCATQRLAEFLRHSSPNFGAIPSSTNVGPRTY-NH2; disulfide 2-7; N-terminus assumed) |  | 

Row | SMILES | Ratio hCT/hAmylin funct. [1, 4] | Ratio hCT/hAmylin funct. [1, 5] | Ratio hCT/hAmylin funct. [1, 6] | ThT pH 4.0 lag time (h) [2] [h] | Ratio hCT/hAmylin binding [3, 7] | Ratio hCT/hAmylin binding [3, 8] | Ratio hCT/hAmylin binding [3, 9] | Ratio hCT/hAmylin binding [3, 10] | Ratio hCT/hAmylin binding [3, 11] | Ratio hCT/hAmylin binding [3, 12] | Ratio hCT/hAmylin binding [3, 13] | Ratio hCT/hAmylin funct. [1, 14] | EC50 ([1]; human amylin receptor functional potency, assay (II), read-out: hAmylin-R funct. EC50) [pM] | IC50 ([3]; Table 4, read-out: hAmylin-R bind IC50) [pM]
5 | CC[C@H](C)[C@H](NC(=O)[C@H](C)NC(=O)CNC(=O)[C@H](Cc1ccccc1)NC(=O)[C@H](CC(N)=O)NC(=O)[C@@H]1CCCN1C(=O)[C@H](CO)NC(=O)[C@H](CO)NC(=O)[C@H](Cc1c[nH]cn1)NC(=O)[C@H](CCCNC(=N)N)NC(=O)[C@H](CC(C)C)NC(=O)[C@H](Cc1ccccc1)NC(=O)[C@H](Cc1c[nH]cn1)NC(=O)[C@H](C)NC(=O)[C@H](CC(C)C)NC(=O)[C@H](CCCNC(=N)N)NC(=O)[C@H](CCC(N)=O)NC(=O)[C@@H](NC(=O)[C@H](C)NC(=O)[C@@H]1CSSC[C@H](NC(=O)[C@@H](N)CCCCNC(=O)CC[C@H](NC(=O)CCCCCCCCCCCCCCCCCCC(=O)O)C(=O)O)C(=O)N[C@@H](CC(N)=O)C(=O)N[C@@H]([C@@H](C)O)C(=O)N[C@@H](C)C(=O)N[C@@H]([C@@H](C)O)C(=O)N1)[C@@H](C)O)C(=O)N1CCC[C@H]1C(=O)N[C@@H](CO)C(=O)N[C@@H](CO)C(=O)N[C@H](C(=O)N[C@@H](CC(N)=O)C(=O)N[C@H](C(=O)NCC(=O)N1CCC[C@H]1C(=O)N[C@@H](CC(N)=O)C(=O)N[C@H](C(=O)N1CCC[C@H]1C(N)=O)[C@@H](C)O)C(C)C)[C@@H](C)O [Example 115] (H-K([γGlu-C20 diacid])CNTATCATQRLAHFLRHSSPNFGAIPSSTNVGPNTP-NH2; disulfide 2-7 (inferred); N-terminus assumed) | 0.8 | 0.8 | 0.8 | 45 | 1.2 |  |  |  | 1.2 |  |  | 0.8 | 52 | 131
